# Source: patent publication US20230085307A1, “PYRIDAZINONE COMPOUND AND HERBICIDE” (NISSAN CHEMICAL CORPORATION, priority 2019, published 2023)
# Tested on: oval-leafed pondweed
# Assay: Test Example 1: herbicidal activity, application before weed generation under submerged conditions (Table 16, symbol C)
# Format: in vivo, oval-leafed pondweed (Monochoria vaginalis)
# Conditions: amount of applied herbicide 320 g/ha
# In short: (§1)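 Alluvial soil was flooded to 4 cm depth, weed seeds were sown mixed and 2.5-leaf rice seedlings were transplanted. On sowing day, the compound's emulsion, diluted in water to a set dose, was applied to the water surface. Plants grew at 25–30 °C and were scored 0–5 after three weeks.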
row,SMILES,"Herbicidal effect, C: oval-leafed pondweed"
1,CCCC(=O)Oc1c(C)nn(C)c(=O)c1-c1c(-c2ccc(OC)cc2)sc2c(Cl)cccc12 [4-024],3 (Herbicidal rate of 40% or more and less than 70%)
2,CCCC(=O)Oc1c(C)nn(C)c(=O)c1-c1c(-c2ccccc2OCC)sc2c(Cl)cccc12 [4-026],4 (Herbicidal rate of 70% or more and less than 90%)

# Tested on: windgrass
# Assay: Test Example 5: herbicidal effect by foliage application, plastic box (Table 20, symbol L)
# Format: in vivo, windgrass (Apera spica-venti)
# Conditions: 320 g/ha, foliage application after 14-day growth, evaluated three weeks after application
# In short: (§2)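 Foliar spray test: emulsion formulation diluted in water to a set application rate, sprayed onto 14-day-old plants raised in diluvial soil at 25° C to 30° C under glass. Both herbicidal effect and crop effect rated visually three weeks later.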
row,SMILES,herbicidal effect on L: windgrass (evaluation grade 0-5)
1,CCCC(=O)Oc1c(C)nn(C)c(=O)c1-c1c(-c2ccc(OC)cc2)sc2c(Cl)cccc12 [4-024],4 (Herbicidal rate of 70% or more and less than 90%)
2,CCCC(=O)Oc1c(C)nn(C)c(=O)c1-c1c(-c2ccccc2OCC)sc2c(Cl)cccc12 [4-026],5 (Herbicidal rate of 90% or more (almost completely withered))

# Tested on: barnyard grass
# Assay: Test Example 5: herbicidal effect by foliage application, plastic box (Table 20, symbol H)
# Format: in vivo, barnyard grass (Echinochloa crus-galli)
# Conditions: 320 g/ha, foliage application after 14-day growth, evaluated three weeks after application
# In short: as §2
row,SMILES,herbicidal effect on H: barnyard grass (evaluation grade 0-5)
1,CCCC(=O)Oc1c(C)nn(C)c(=O)c1-c1c(-c2ccc(OC)cc2)sc2c(Cl)cccc12 [4-024],4 (Herbicidal rate of 70% or more and less than 90%)
2,CCCC(=O)Oc1c(C)nn(C)c(=O)c1-c1c(-c2ccccc2OCC)sc2c(Cl)cccc12 [4-026],5 (Herbicidal rate of 90% or more (almost completely withered))

# Tested on: chickweed
# Assay: Test Example 5: herbicidal effect by foliage application, plastic box (Table 20, symbol P)
# Format: in vivo, common chickweed (Stellaria media)
# Conditions: 320 g/ha, foliage application after 14-day growth, evaluated three weeks after application
# In short: as §2
row,SMILES,herbicidal effect on P: chickweed (evaluation grade 0-5)
1,CCCC(=O)Oc1c(C)nn(C)c(=O)c1-c1c(-c2ccc(OC)cc2)sc2c(Cl)cccc12 [4-024],5 (Herbicidal rate of 90% or more (almost completely withered))
2,CCCC(=O)Oc1c(C)nn(C)c(=O)c1-c1c(-c2ccccc2OCC)sc2c(Cl)cccc12 [4-026],5 (Herbicidal rate of 90% or more (almost completely withered))

# Tested on: velvetleaf
# Assay: Test Example 5: herbicidal effect by foliage application, plastic box (Table 20, symbol M)
# Format: in vivo, velvetleaf (Abutilon theophrasti)
# Conditions: 320 g/ha, foliage application after 14-day growth, evaluated three weeks after application
# In short: as §2
row,SMILES,herbicidal effect on M: velvetleaf (evaluation grade 0-5)
1,CCCC(=O)Oc1c(C)nn(C)c(=O)c1-c1c(-c2ccc(OC)cc2)sc2c(Cl)cccc12 [4-024],4 (Herbicidal rate of 70% or more and less than 90%)
2,CCCC(=O)Oc1c(C)nn(C)c(=O)c1-c1c(-c2ccccc2OCC)sc2c(Cl)cccc12 [4-026],5 (Herbicidal rate of 90% or more (almost completely withered))

# Tested on: lambsquarters
# Assay: Test Example 5: herbicidal effect by foliage application, plastic box (Table 20, symbol O)
# Format: in vivo, lambsquarters (Chenopodium album)
# Conditions: 320 g/ha, foliage application after 14-day growth, evaluated three weeks after application
# In short: as §2
row,SMILES,herbicidal effect on O: lambsquarters (evaluation grade 0-5)
1,CCCC(=O)Oc1c(C)nn(C)c(=O)c1-c1c(-c2ccc(OC)cc2)sc2c(Cl)cccc12 [4-024],3 (Herbicidal rate of 40% or more and less than 70%)
2,CCCC(=O)Oc1c(C)nn(C)c(=O)c1-c1c(-c2ccccc2OCC)sc2c(Cl)cccc12 [4-026],3 (Herbicidal rate of 40% or more and less than 70%)

# Tested on: velvetleaf
# Assay: Test Example 4: herbicidal effect by soil treatment (Table 19, symbol M)
# Format: in vivo, velvetleaf (Abutilon theophrasti)
# Conditions: amount of applied herbicide 320 g/ha
# In short: (§3)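 Herbicidal effect was rated 3 weeks after treatment, using the scoring criteria of an earlier test. The compound, formulated as an emulsion and diluted in water to a set herbicide amount, had been sprayed uniformly on soil over freshly sown seeds. Growth took place in a greenhouse at 25° C. to 30° C.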
row,SMILES,"Herbicidal effect by soil treatment, M: velvetleaf"
1,CCCC(=O)Oc1c(C)nn(C)c(=O)c1-c1c(-c2ccc(OC)cc2)sc2c(Cl)cccc12 [4-024],0 (Herbicidal rate of 5% or less (almost no effect))
2,CCCC(=O)Oc1c(C)nn(C)c(=O)c1-c1c(-c2ccccc2OCC)sc2c(Cl)cccc12 [4-026],0 (Herbicidal rate of 5% or less (almost no effect))

# Tested on: lambsquarters
# Assay: Test Example 4: herbicidal effect by soil treatment (Table 19, symbol O)
# Format: in vivo, lambsquarters (Chenopodium album)
# Conditions: amount of applied herbicide 320 g/ha
# In short: as §3
row,SMILES,"Herbicidal effect by soil treatment, O: lambsquarters"
1,CCCC(=O)Oc1c(C)nn(C)c(=O)c1-c1c(-c2ccc(OC)cc2)sc2c(Cl)cccc12 [4-024],0 (Herbicidal rate of 5% or less (almost no effect))
2,CCCC(=O)Oc1c(C)nn(C)c(=O)c1-c1c(-c2ccccc2OCC)sc2c(Cl)cccc12 [4-026],0 (Herbicidal rate of 5% or less (almost no effect))

# Tested on: Italian ryegrass
# Assay: Test Example 5: herbicidal effect by foliage application, plastic box (Table 20, symbol K)
# Format: in vivo, Italian ryegrass (Lolium multiflorum)
# Conditions: 320 g/ha, foliage application after 14-day growth, evaluated three weeks after application
# In short: as §2
row,SMILES,herbicidal effect on K: Italian ryegrass (evaluation grade 0-5)
1,CCCC(=O)Oc1c(C)nn(C)c(=O)c1-c1c(-c2ccc(OC)cc2)sc2c(Cl)cccc12 [4-024],4 (Herbicidal rate of 70% or more and less than 90%)
2,CCCC(=O)Oc1c(C)nn(C)c(=O)c1-c1c(-c2ccccc2OCC)sc2c(Cl)cccc12 [4-026],1 (Herbicidal rate of 5% or more and less than 20%)

# Tested on: Japanese bulrush
# Assay: Test Example 2: herbicidal activity, application during weed generation under submerged conditions (Table 17, symbol B)
# Format: in vivo, Japanese bulrush (Schoenoplectus juncoides)
# Conditions: AAH 320 g/ha; application during weed generation, submerged conditions
# In short: (§4)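 Steps: fill Wagner pots with alluvial soil; add water to give 4 cm depth; sow the species mixed; grow under glass at 25–30° C.; at 1–2 leaves apply water-diluted emulsion formulation to the water surface at a fixed herbicide amount; score after 3 weeks.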
row,SMILES,"herbicidal effect rating, B: Japanese bulrush"
1,CCCC(=O)Oc1c(C)nn(C)c(=O)c1-c1c(-c2ccc(OC)cc2)sc2c(Cl)cccc12 [4-024],0 (Herbicidal rate of 5% or less (almost no effect))
2,CCCC(=O)Oc1c(C)nn(C)c(=O)c1-c1c(-c2ccccc2OCC)sc2c(Cl)cccc12 [4-026],3 (Herbicidal rate of 40% or more and less than 70%)

# Tested on: wild oat
# Assay: Test Example 4: herbicidal effect by soil treatment (Table 19, symbol I)
# Format: in vivo, wild oat (Avena fatua)
# Conditions: amount of applied herbicide 320 g/ha
# In short: as §3
row,SMILES,"Herbicidal effect by soil treatment, I: wild oat"
1,CCCC(=O)Oc1c(C)nn(C)c(=O)c1-c1c(-c2ccc(OC)cc2)sc2c(Cl)cccc12 [4-024],0 (Herbicidal rate of 5% or less (almost no effect))
2,CCCC(=O)Oc1c(C)nn(C)c(=O)c1-c1c(-c2ccccc2OCC)sc2c(Cl)cccc12 [4-026],0 (Herbicidal rate of 5% or less (almost no effect))

# Tested on: persian speedwell
# Assay: Test Example 4: herbicidal effect by soil treatment (Table 19, symbol R)
# Format: in vivo, Persian speedwell (Veronica persica)
# Conditions: amount of applied herbicide 320 g/ha
# In short: as §3
row,SMILES,"Herbicidal effect by soil treatment, R: persian speedwell"
1,CCCC(=O)Oc1c(C)nn(C)c(=O)c1-c1c(-c2ccc(OC)cc2)sc2c(Cl)cccc12 [4-024],0 (Herbicidal rate of 5% or less (almost no effect))
2,CCCC(=O)Oc1c(C)nn(C)c(=O)c1-c1c(-c2ccccc2OCC)sc2c(Cl)cccc12 [4-026],2 (Herbicidal rate of 20% or more and less than 40%)

# Tested on: Italian ryegrass
# Assay: Test Example 4: herbicidal effect by soil treatment (Table 19, symbol K)
# Format: in vivo, Italian ryegrass (Lolium multiflorum)
# Conditions: amount of applied herbicide 320 g/ha
# In short: as §3
row,SMILES,"Herbicidal effect by soil treatment, K: Italian ryegrass"
1,CCCC(=O)Oc1c(C)nn(C)c(=O)c1-c1c(-c2ccc(OC)cc2)sc2c(Cl)cccc12 [4-024],0 (Herbicidal rate of 5% or less (almost no effect))
2,CCCC(=O)Oc1c(C)nn(C)c(=O)c1-c1c(-c2ccccc2OCC)sc2c(Cl)cccc12 [4-026],0 (Herbicidal rate of 5% or less (almost no effect))

# Tested on: rice flat sedge
# Assay: Test Example 3: herbicidal effect by foliage application, Wagner pot (Table 18, symbol E)
# Format: in vivo, rice flat sedge (Cyperus iria)
# Conditions: 320 g/ha
# In short: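 Plants were sown in alluvial soil held under 0.1–0.5 cm standing water and grown 14 days in a greenhouse at 25–30 °C. An emulsifiable formulation, water-diluted to the set dose, was then sprayed onto the foliage, and effects were scored three weeks later using previously defined criteria.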
row,SMILES,herbicidal effect on rice flat sedge (E)
1,CCCC(=O)Oc1c(C)nn(C)c(=O)c1-c1c(-c2ccc(OC)cc2)sc2c(Cl)cccc12 [4-024],5 (Herbicidal rate of 90% or more (almost completely withered))
2,CCCC(=O)Oc1c(C)nn(C)c(=O)c1-c1c(-c2ccccc2OCC)sc2c(Cl)cccc12 [4-026],5 (Herbicidal rate of 90% or more (almost completely withered))

# Tested on: late watergrass
# Assay: Test Example 2: herbicidal activity, application during weed generation under submerged conditions (Table 17, symbol A)
# Format: in vivo, late watergrass (Echinochloa oryzicola)
# Conditions: AAH 320 g/ha; application during weed generation, submerged conditions
# In short: as §4
row,SMILES,"herbicidal effect rating, A: late watergrass"
1,CCCC(=O)Oc1c(C)nn(C)c(=O)c1-c1c(-c2ccc(OC)cc2)sc2c(Cl)cccc12 [4-024],3 (Herbicidal rate of 40% or more and less than 70%)
2,CCCC(=O)Oc1c(C)nn(C)c(=O)c1-c1c(-c2ccccc2OCC)sc2c(Cl)cccc12 [4-026],3 (Herbicidal rate of 40% or more and less than 70%)

# Tested on: Japanese bulrush
# Assay: Test Example 1: herbicidal activity, application before weed generation under submerged conditions (Table 16, symbol B)
# Format: in vivo, Japanese bulrush (Schoenoplectus juncoides)
# Conditions: amount of applied herbicide 320 g/ha
# In short: as §1
row,SMILES,"Herbicidal effect, B: Japanese bulrush"
1,CCCC(=O)Oc1c(C)nn(C)c(=O)c1-c1c(-c2ccc(OC)cc2)sc2c(Cl)cccc12 [4-024],2 (Herbicidal rate of 20% or more and less than 40%)
2,CCCC(=O)Oc1c(C)nn(C)c(=O)c1-c1c(-c2ccccc2OCC)sc2c(Cl)cccc12 [4-026],3 (Herbicidal rate of 40% or more and less than 70%)

# Tested on: wild oat
# Assay: Test Example 5: herbicidal effect by foliage application, plastic box (Table 20, symbol I)
# Format: in vivo, wild oat (Avena fatua)
# Conditions: 320 g/ha, foliage application after 14-day growth, evaluated three weeks after application
# In short: as §2
row,SMILES,herbicidal effect on I: wild oat (evaluation grade 0-5)
1,CCCC(=O)Oc1c(C)nn(C)c(=O)c1-c1c(-c2ccc(OC)cc2)sc2c(Cl)cccc12 [4-024],0 (Herbicidal rate of 5% or less (almost no effect))
2,CCCC(=O)Oc1c(C)nn(C)c(=O)c1-c1c(-c2ccccc2OCC)sc2c(Cl)cccc12 [4-026],0 (Herbicidal rate of 5% or less (almost no effect))
